US20180161383A1, “NATURAL PHARMACEUTICAL COMPOSITION FOR TREATING MENOPAUSAL MENTAL DEPRESSION AND ATYPICAL DEPRESSIVE DISORDER AND APPLICATION THEREOF” (SHAANXI TIANKUI BIOMEDICINE TECHNOLOGY LIMITED COMPANY, priority 2015, published 2018)

Assays:
Format in all cases: in vivo
[1] = test system: rats suffering from the menopausal depression; test: open-field test of rats; design: After medication minus Before medication (Fecal weight) / Fecal weight: unit not given here; conditions: positive drug group, dose not given
[2] = test system: rats suffering from the menopausal depression; test: open-field water drinking test of rats; conditions: positive drug group, dose not given
[3] = test system: adrenocorticotrophic hormone; test: ELISA, content of adrenocorticotrophic hormone in serum of rats; conditions: rat serum, positive drug group, dose not given
Procedure: (§1) drenching animals in sequence to put to death within 3 cycles, enabling the animals to have empty stomachs for 12 hours before putting to death, and performing intraperitoneal anesthesia with 3% of pentobarbital sodium at a dose of 0.1 ml/100 g; and taking 8 ml of whole blood in a centrifuge tube, centrifuging at a rate of 4000 r/min for 15 min, separating the serum after centrifuging, labeling, and separately filling and preserving in a refrigerator of −20° C.; 2) ELISA Determination Method is as Follows: Detection is performed according to description of an ELISA kit. Before use, all reagents are fully and uniformly mixed. Lots of bubbles should not be produced in liquid, so as to avoid generating a sample adding error due to addition of lots of bubbles during sample adding. The quantity of needed plates is determined according to a quantity of to-be-detected samples and the quantity of standard substances. […] However, since many samples need to be determined, single holes should be made according to actual conditions. […] A basic principle of enzyme-labeled immunoassay is as follows: an antibody connected onto a solid-phase carrier and an enzyme-labeled antibody are respectively bound to two antigenic determinants on a detected antigen molecule in the sample to form a solid-phase antibody-antigen-enzyme-labeled antibody immune complex. […]

noradrenaline = test: ELISA, content of noradrenaline in serum of rats; conditions: rat serum, positive drug group, dose not given
Procedure: as §1

5-hydroxytryptamine = test: ELISA, content of 5-hydroxytryptamine in serum of rats; conditions: rat serum, positive drug group, dose not given
Procedure: as §1

dopamine = test: ELISA, content of dopamine in serum of rats; conditions: rat serum, positive drug group, dose not given
Procedure: as §1

cAMP = test: ELISA, content of cAMP in serum of rats; conditions: rat serum, positive drug group, dose not given
Procedure: as §1

cGMP = test: ELISA, content of cGMP in serum of rats; conditions: rat serum, positive drug group, dose not given
Procedure: as §1

oxytocin = test: ELISA, content of oxytocin in serum of rats; conditions: rat serum, positive drug group, dose not given
Procedure: as §1

[4] = test system: follicle-stimulating hormone; test: ELISA, content of follicle-stimulating hormone in serum of rats; conditions: rat serum, positive drug group, dose not given
Procedure: as §1

estradiol = test: ELISA, content of estradiol in serum of rats; conditions: rat serum, positive drug group, dose not given
Procedure: as §1

IL-6 = test: ELISA, content of IL-6 in serum of rats; conditions: rat serum, positive drug group, dose not given
Procedure: as §1

IL-2 = test: ELISA, content of IL-2 in serum of rats; conditions: rat serum, positive drug group, dose not given
Procedure: as §1

IL-8 = test: ELISA, content of IL-8 in serum of rats; conditions: rat serum, positive drug group, dose not given
Procedure: as §1

Fc1ccc([C@@H]2CCNC[C@H]2COc2ccc3c(c2)OCO3)cc1 [Paroxetine, paroxetine] showed a Fecal weight ([1]; rats after medication) of 0.14 ± 0.38, a Horizontal scores ([1]; rats after medication) of 78.29 ± 28.18 and a Vertical scores ([1]; rats after medication) of 9.57 ± 4.68. For the same molecule, the “After medication minus Before medication (Fecal weight)” value ([1]; rats) was −0.94 ± 0.71, the “After medication minus before medication (horizontal scores)” value ([1]; rats) was 41.14 ± 28.54 and the “Number of times approaching to water bottles” value ([2]; rats after medication) was 10.43 ± 5.09. The “Number of times standing” value ([2]; rats after medication) was 11.28 ± 4.23, the “Water drinking latent period” value ([2]; rats after medication) was 88.86 ± 20.05 and the Water drinking time ([2]; rats after medication) was 112.14 ± 50.83. For the same molecule, the “After medication minus Before medication (Frequencies of approaching water bottles)” value ([2]; rats) was 6.5742 ± 4.0443, the “After medication minus Before medication (Standing frequency)” value ([2]; rats) was 7.5728 ± 4.5413 and the “After medication minus Before medication (Water drinking time)” value ([2]; rats) was 112.14 ± 50.83. For the same molecule, the “After medication minus Medication (Water drinking latent period)” value ([2]; rats) was 70.43 ± 35.65, the ACTH [3] was 16.3682 ± 1.8767 ng/L and the NA (noradrenaline) was 32.5359 ± 5.6128 ng/L. It also gave a 5-HT (5-hydroxytryptamine) of 42.9048 ± 6.2922 ng/L, a DA (dopamine) of 7.6595 ± 1.3337 pg/L and a cAMP (cAMP) of 2.7761 ± 0.3726 U/L. For the same molecule, the cGMP (cGMP) was 1.8333 ± 0.4686 U/L, the OT (oxytocin) was 4.1889 ± 0.8811 ng/L and the FSH [4] was 3.7068 ± 0.6242 IU/L. The E2 (estradiol) was 10.0566 ± 0.7140 ng/L, the IL-6 (IL-6) was 14.9800 ± 2.9183 ng/mL and the IL-2 (IL-2) was 341.853 ± 59.289 ng/L. The IL-8 (IL-8) was 196.479 ± 14.596 ng/L.
